Results from ChEMBL document CHEMBL5653615 (J Biol Chem, 2013).

How the values were obtained:
[1] = target: Protein-tyrosine kinase 2-beta (Homo sapiens) (UniProt Q14289); experiment: Inhibition of human PYK2 at 18.6 nM by HotSpot assay relative to control
[2] = target: Serine/threonine-protein kinase 24 (Homo sapiens) (UniProt Q9Y6E0); experiment: Inhibition of human STK24 at 18.6 nM by HotSpot assay relative to control
[3] = target: Ribosomal protein S6 kinase alpha-4 (Homo sapiens) (UniProt O75676); experiment: Inhibition of human RPS6KA4 at 18.6 nM by HotSpot assay relative to control
Sequence of Ribosomal protein S6 kinase alpha-4 (Homo sapiens) (O75676 whole entry, looked up): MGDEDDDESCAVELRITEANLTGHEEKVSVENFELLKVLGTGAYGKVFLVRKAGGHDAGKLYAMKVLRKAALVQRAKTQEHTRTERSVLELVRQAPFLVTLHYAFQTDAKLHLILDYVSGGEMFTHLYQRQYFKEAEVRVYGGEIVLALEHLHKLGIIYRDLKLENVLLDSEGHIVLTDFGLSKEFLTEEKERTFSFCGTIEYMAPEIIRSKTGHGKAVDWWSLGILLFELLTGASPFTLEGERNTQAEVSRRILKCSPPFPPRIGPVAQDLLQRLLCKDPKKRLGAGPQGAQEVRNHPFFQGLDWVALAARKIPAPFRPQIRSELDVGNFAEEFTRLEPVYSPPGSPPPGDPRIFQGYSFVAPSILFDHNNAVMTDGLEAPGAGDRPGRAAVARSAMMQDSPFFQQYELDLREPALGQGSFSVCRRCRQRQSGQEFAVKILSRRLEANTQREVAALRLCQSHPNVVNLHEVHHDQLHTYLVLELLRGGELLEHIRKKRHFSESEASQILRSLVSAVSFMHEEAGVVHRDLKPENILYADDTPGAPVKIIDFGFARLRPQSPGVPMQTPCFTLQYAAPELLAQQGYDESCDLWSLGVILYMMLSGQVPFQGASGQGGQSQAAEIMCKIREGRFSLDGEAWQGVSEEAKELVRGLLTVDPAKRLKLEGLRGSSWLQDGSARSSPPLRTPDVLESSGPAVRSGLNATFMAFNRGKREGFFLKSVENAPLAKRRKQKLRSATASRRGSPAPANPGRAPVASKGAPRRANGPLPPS

[4] = target: Tyrosine-protein kinase Yes (Homo sapiens) (UniProt P07947); experiment: Inhibition of human YES1 at 18.6 nM by HotSpot assay relative to control
Sequence of Tyrosine-protein kinase Yes (Homo sapiens) (P07947 2-543 limits assumed): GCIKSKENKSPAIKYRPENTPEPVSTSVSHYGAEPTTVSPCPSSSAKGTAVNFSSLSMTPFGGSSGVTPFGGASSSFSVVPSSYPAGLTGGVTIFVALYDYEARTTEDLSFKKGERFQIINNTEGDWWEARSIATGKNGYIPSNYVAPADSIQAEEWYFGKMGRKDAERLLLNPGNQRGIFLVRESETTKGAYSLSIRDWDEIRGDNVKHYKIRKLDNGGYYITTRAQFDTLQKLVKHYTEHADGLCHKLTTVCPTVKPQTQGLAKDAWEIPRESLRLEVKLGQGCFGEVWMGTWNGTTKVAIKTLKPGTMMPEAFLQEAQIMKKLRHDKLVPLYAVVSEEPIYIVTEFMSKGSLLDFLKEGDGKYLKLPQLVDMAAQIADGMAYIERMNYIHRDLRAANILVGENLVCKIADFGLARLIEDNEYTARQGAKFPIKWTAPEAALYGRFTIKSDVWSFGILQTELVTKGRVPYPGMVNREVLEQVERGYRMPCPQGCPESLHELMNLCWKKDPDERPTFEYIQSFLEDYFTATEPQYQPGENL

[5] = target: T1, Serine/threonine-protein kinase TAO3 (Homo sapiens) (UniProt Q9H2K8); experiment: Inhibition of human JIK at 1.82 nM by HotSpot assay relative to control
T1 sequence (whole entry): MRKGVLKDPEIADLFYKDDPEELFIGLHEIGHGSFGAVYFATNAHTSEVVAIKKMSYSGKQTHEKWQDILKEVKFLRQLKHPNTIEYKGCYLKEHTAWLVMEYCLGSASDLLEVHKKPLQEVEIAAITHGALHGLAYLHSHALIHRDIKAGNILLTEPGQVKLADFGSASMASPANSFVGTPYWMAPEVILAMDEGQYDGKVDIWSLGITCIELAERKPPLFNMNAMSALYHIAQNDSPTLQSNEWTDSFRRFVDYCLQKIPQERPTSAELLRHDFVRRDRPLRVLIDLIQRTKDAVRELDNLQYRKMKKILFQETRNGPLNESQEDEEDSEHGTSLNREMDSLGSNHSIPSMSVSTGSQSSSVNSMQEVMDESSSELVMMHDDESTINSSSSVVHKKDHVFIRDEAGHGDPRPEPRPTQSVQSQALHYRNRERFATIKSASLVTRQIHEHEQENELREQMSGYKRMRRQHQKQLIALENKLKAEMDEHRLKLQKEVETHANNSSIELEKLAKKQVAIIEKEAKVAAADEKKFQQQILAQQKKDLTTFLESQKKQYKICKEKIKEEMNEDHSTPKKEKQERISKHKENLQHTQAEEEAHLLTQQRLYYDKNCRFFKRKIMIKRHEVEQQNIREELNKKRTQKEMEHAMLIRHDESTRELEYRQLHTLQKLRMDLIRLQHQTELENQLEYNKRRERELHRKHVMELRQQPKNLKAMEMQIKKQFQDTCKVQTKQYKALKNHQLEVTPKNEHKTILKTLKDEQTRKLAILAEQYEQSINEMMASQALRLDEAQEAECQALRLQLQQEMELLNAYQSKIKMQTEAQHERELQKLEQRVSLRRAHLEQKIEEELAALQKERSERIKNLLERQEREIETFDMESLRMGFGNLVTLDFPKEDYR

[6] = target: T2, Tyrosine-protein kinase receptor TYRO3 (Homo sapiens) (UniProt Q06418); experiment: Inhibition of human SKY at 1.82 nM by HotSpot assay relative to control
T2 sequence (whole entry): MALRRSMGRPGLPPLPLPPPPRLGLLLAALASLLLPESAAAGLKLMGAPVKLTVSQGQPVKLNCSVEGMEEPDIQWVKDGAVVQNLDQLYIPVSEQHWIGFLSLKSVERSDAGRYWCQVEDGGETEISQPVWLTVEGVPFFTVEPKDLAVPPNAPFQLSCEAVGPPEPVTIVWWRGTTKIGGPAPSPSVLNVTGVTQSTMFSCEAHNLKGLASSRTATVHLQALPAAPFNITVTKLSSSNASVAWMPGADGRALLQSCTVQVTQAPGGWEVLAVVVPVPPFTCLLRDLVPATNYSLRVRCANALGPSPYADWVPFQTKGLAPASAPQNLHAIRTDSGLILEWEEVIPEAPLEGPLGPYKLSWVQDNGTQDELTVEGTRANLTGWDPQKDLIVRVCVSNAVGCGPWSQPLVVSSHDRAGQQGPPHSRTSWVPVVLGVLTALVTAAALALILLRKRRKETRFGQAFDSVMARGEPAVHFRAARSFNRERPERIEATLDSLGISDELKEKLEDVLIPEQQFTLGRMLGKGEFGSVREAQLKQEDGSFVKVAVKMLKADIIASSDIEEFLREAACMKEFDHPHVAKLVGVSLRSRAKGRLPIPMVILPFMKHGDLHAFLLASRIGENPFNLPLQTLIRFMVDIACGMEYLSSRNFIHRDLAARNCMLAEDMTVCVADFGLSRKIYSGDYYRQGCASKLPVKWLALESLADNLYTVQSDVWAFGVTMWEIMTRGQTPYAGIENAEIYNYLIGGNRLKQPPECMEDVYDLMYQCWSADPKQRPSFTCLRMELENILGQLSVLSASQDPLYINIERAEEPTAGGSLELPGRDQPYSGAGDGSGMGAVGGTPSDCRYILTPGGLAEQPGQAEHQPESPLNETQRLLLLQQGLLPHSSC

[7] = target: Maternal embryonic leucine zipper kinase (Homo sapiens) (UniProt Q14680); experiment: Inhibition of human MELK at 1.82 nM by HotSpot assay relative to control
Sequence of Maternal embryonic leucine zipper kinase (Homo sapiens) (Q14680 whole entry, looked up): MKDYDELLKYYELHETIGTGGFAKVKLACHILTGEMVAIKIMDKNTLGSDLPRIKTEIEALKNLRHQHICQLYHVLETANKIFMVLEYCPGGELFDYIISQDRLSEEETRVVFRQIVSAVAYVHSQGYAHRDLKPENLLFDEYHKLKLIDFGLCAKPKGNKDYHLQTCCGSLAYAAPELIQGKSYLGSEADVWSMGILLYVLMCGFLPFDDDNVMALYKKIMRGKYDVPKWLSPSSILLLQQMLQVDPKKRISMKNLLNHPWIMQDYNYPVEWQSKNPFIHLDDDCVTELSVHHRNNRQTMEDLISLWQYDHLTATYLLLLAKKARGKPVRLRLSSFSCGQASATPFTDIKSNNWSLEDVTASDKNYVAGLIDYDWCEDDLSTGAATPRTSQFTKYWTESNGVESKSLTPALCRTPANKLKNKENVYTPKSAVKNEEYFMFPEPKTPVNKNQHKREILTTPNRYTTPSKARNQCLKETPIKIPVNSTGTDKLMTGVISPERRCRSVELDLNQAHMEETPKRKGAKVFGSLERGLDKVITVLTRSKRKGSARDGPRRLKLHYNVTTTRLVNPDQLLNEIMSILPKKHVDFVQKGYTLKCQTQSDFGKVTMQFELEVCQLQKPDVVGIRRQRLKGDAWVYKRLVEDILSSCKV

[8] = target: G protein-coupled receptor kinase 5 (Homo sapiens) (UniProt P34947); experiment: Inhibition of human GRK5 at 1.82 nM by HotSpot assay relative to control
Sequence of G protein-coupled receptor kinase 5 (Homo sapiens) (P34947 whole entry, looked up): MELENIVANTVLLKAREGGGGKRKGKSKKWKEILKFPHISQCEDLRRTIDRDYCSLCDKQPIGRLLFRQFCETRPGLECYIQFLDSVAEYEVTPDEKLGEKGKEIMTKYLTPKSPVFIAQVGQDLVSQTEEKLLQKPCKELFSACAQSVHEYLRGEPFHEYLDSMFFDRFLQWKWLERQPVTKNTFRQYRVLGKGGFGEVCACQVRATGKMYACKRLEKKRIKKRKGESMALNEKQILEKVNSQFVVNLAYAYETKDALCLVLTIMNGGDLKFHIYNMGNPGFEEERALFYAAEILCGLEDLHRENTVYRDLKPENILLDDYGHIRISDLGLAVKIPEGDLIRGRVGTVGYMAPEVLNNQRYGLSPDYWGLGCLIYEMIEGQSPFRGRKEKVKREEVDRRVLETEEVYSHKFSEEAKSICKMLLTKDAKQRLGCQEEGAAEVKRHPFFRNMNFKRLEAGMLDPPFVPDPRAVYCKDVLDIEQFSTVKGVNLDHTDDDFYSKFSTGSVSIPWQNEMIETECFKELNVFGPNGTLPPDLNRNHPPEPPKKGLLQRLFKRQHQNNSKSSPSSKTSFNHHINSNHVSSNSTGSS

[9] = target: T3, NUAK family SNF1-like kinase 2 (Homo sapiens) (UniProt Q9H093); experiment: Inhibition of human NUAK2 at 1.82 nM by HotSpot assay relative to control
T3 sequence (whole entry): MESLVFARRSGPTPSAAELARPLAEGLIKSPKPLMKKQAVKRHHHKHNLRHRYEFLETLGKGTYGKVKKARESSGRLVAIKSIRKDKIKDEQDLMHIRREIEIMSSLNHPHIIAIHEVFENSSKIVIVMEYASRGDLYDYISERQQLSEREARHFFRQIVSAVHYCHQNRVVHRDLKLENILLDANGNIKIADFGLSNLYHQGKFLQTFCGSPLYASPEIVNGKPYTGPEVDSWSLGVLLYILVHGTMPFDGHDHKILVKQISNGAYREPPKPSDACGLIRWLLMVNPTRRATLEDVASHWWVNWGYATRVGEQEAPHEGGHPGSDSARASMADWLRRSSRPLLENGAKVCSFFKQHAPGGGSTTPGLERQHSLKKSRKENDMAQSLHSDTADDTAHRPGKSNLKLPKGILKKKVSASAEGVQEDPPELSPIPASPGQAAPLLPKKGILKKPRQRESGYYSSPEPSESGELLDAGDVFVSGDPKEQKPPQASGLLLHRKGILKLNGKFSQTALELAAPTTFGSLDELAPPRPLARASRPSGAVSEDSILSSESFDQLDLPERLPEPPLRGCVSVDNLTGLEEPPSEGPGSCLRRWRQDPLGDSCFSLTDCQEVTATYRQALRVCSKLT

[10] = target: Protein kinase C alpha type (Homo sapiens) (UniProt P17252); experiment: Inhibition of human PKCa at 1.82 nM by HotSpot assay relative to control

Sequence of Protein-tyrosine kinase 2-beta (Homo sapiens) (Q14289 whole entry, looked up): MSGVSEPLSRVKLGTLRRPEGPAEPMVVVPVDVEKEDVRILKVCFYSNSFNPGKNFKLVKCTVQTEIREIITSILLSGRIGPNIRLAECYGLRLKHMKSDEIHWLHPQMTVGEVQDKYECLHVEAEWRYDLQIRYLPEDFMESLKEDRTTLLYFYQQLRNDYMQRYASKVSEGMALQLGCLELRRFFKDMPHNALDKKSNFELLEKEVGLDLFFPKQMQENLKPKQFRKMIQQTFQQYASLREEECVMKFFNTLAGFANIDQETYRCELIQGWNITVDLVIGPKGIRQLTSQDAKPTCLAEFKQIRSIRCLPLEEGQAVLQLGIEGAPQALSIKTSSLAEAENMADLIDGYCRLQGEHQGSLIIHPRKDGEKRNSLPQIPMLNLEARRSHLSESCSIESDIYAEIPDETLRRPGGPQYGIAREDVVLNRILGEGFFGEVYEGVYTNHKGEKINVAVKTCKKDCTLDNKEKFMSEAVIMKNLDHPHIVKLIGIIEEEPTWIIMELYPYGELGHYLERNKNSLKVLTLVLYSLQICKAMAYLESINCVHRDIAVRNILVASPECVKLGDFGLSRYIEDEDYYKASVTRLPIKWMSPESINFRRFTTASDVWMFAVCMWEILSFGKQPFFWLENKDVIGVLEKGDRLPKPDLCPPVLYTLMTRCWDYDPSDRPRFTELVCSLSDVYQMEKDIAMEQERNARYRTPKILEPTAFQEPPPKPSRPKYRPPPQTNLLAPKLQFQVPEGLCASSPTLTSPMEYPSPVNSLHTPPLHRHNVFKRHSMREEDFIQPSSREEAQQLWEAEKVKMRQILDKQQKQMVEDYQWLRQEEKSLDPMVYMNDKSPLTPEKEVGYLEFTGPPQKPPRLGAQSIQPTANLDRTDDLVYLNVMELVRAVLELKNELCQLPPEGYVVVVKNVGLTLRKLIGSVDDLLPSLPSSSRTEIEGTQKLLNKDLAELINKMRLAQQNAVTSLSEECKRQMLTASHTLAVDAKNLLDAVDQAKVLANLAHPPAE
Sequence of Serine/threonine-protein kinase 24 (Homo sapiens) (Q9Y6E0 whole entry, looked up): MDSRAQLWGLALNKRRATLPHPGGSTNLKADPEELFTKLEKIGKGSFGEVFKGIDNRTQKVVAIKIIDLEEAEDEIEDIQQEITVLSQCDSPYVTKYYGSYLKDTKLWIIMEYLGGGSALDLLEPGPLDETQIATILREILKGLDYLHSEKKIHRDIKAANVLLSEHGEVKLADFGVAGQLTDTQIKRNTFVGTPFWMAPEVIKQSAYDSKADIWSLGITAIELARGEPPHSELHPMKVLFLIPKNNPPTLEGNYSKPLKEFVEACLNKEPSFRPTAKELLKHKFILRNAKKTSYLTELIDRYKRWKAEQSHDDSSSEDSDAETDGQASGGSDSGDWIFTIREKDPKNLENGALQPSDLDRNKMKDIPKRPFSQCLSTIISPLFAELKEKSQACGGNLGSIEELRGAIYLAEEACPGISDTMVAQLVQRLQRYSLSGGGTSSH

Row | inhibition [1] | inhibition [2] | inhibition [3] | inhibition [4] | inhibition [5] | inhibition [6] | inhibition [7] | inhibition [8] | inhibition [9] | inhibition [10] | SMILES
1 | -4.64% | 3.3% | -2.53% | 4.32% |  |  |  |  |  |  | C[C@]1(O)C[C@@H](c2nc(-c3ccc4ccc(-c5ccccc5)nc4c3)c3c(N)nccn32)C1
2 |  |  |  |  | 4.12% | -1.49% | 1.63% | 1.88% | 8.18% | -5.95% | C[C@@]1(C(=O)Nc2ccc(F)nc2)CCCN1c1nc(Nc2cc(C3CC3)n[nH]2)c2cccn2n1
